One test deals with mTOR (Homo sapiens (Human), UniProt P42345). Description: In vitro mTOR Lanthascreen assay. The class given is biochemical. Particulars: average if run more than once. The source says: The Invitrogen (Carlsbad, Calif.) mammalian target of rapamycin (mTOR) Lanthascreen assay can be used to quantitate mTOR kinase activity in an in vitro setting. Active mTOR phosphorylates eukaryotic translation initiation factor 4E binding protein 1 (4E-BP1) on residue threonine 46. This phosphorylation event can be detected with a phospho-specific terbium (Tb) labeled Ab, in turn bringing the Tb label in close proximity to the GFP tagged 4E-BP 1 and allowing for time-resolved fluorescence resonance energy transfer (TR-FRET), which correlates 4E-BP1 phosphorylation levels with mTOR kinase activity.
mTOR, sequence (P42345 1360-2549): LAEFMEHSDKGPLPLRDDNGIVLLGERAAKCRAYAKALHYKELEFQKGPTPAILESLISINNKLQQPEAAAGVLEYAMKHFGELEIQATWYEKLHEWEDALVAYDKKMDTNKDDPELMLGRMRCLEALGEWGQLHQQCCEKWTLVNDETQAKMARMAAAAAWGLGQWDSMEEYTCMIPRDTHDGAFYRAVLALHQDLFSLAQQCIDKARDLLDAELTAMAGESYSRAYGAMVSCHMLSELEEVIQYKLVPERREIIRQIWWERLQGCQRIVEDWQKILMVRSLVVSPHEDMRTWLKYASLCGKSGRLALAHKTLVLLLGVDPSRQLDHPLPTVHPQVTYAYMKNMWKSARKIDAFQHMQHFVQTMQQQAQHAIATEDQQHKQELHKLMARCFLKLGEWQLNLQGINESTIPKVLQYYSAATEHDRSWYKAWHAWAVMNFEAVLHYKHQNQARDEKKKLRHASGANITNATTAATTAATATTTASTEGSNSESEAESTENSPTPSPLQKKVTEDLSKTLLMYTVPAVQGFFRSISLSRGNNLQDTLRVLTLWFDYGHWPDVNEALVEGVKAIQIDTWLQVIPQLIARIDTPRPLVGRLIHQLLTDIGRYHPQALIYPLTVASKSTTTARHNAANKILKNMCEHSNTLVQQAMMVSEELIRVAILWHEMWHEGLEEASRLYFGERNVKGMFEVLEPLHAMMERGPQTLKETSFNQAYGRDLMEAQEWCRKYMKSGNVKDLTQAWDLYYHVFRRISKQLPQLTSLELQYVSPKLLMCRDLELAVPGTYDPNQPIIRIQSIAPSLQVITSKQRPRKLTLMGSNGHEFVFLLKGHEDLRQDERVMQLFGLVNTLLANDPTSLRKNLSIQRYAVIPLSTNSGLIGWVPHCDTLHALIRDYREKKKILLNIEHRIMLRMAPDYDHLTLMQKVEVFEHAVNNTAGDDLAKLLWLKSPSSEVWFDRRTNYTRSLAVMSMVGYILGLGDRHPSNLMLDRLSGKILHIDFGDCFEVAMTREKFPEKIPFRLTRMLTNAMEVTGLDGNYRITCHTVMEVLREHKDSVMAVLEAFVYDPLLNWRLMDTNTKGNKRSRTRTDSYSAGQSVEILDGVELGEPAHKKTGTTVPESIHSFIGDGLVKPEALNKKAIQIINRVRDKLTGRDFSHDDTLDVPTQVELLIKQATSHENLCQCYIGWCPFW
Enzyme reaction buffer can be prepared in deionized water containing 50 mM HEPES (pH 7.5), 0.01% Polysorbate 20, 1 mM EGTA, and 10 mM MnCl2.
Dilutions of the compound to be tested can be prepared in 96-well polypropylene plates (Fisher Scientific, Waltham, Mass.). One row represents a 10-point dose of compound diluted 1:3 in enzyme reaction buffer and 20% dimethyl sulfoxide (DMSO). The top concentration for all compounds is 36 μM. Wells 6 and 12 can serve as the no compound (DMSO only) and high compound controls.
An mTOR substrate solution can prepared in enzyme reaction buffer containing 1600 nM green fluorescent protein tagged eukaryotic translation initiation factor 4E binding protein 1 (GFP-4E-BP1) (Invitrogen, Carlsbad, Calif.) and 28 uM adenosine triphosphate (ATP) (Calbiochem, Gibbstown, N.J.).
mTOR enzyme (Invitrogen, Carlsbad, Calif.) can be diluted in enzyme reaction buffer to a working concentration of 100 ng/mL.
The enzyme assay can be run in 384 well low volume assay plates (Corning, Corning, N.Y.). 2.5 uL of substrate solution containing GFP-4E-BP1 and ATP can be added to appropriate wells in the assay plate followed by 2.5 μL of compound dilutions. 5 μL of appropriately diluted mTOR enzyme can be added and the reaction allowed to proceed for 1 hour at room temperature. Final reagent concentrations in the enzyme assay are 50 ng/mL mTOR, 400 nM GFP-4E-BP1, and 7 μM ATP.
The enzyme assay can be terminated upon the addition of 10 μL of 20 mM EDTA and 4 nM Tb-labeled anti-phospho-4E-BP1 [T46] antibody (Invitrogen, Carlsbad, Calif.). The assay plate can then be incubated at room temperature for 1 hour and results read on a Tecan Safire II plate reader (Tecan, Männedorf, Switzerland).
For orientation: In TR-FRET formats the signal depends on donor and acceptor labels being close together.

The next test addresses PI3Kα (Homo sapiens (Human), UniProt P42336). Kind of test: In vitro PI3K AlphaScreen assay. In kind it is biochemical. Particulars: average if run more than once. The procedure: In Vitro PI3K AlphaScreen® Assay
The PI3K AlphaScreen® assay (PerkinElmer, Waltham, Mass.) measures the activity of a panel of four phosphoinositide 3-kinases: PI3Kα, PI3Kβ, PI3Kγ, and PI3Kδ. Each of these enzymes phosphorylates the 3′-hydroxyl group on phosphatidylinositiol (4,5)-bisphosphate (PIP2) to produce phosphatidylinositol (3,4,5)-trisphosphate (PIP3). This phosphorylation activity is measured using a GST-tagged PIP3 binding protein (Echelon Biosciences, Salt Lake City, Utah), an anti-GST-tagged Acceptor bead, and streptavidin-Donor bead. […] In the absence of this interaction, proximity of the Donor and Acceptor beads is decreased, producing a loss of luminescent signal which is inversely proportional to PI3K activity.
The enzyme reaction buffer is made using sterile water (Baxter, Deerfield, Ill.) and 50 mM Tris HCl pH 7, 14 mM MgCl2, 2 mM sodium cholate, and 100 mM NaCl. 2 mM DTT is added fresh the day of the experiment. The AlphaScreen® reaction buffer is made using sterile water and 10 mM Tris HCl pH 7.5, 150 mM NaCl, 0.10% Tween 20, and 30 mM EDTA. 1 mM DTT is added fresh the day of the experiment.
The source plates for this assay are 384-well Greiner clear polypropylene plates containing test compounds at 5 mM and diluted 1:2 over 22 points. Columns 23 and 24 contain only DMSO as these are designated for positive and negative controls. Source plates are replicated into 384-well Optiplates (PerkinElmer, Waltham, Mass.), 0.5 μL/well, to make assay-ready plates.
The different PI3K isoforms are each diluted in enzyme reaction buffer to 2× working solutions. […] Two different 2× substrate solutions are made in enzyme reaction buffer. In one solution, PI(4,5)P2 (Echelon Biosciences, Salt Lake City, Utah) is diluted to 10 μM and ATP is diluted to 20 μM. This solution is used in the assays testing PI3Kα and PI3Kβ. In a second solution, PI(4,5)P2 is diluted to 10 μM and ATP is diluted to 8 μM. This solution is used in the assays testing PI3Kγ and PI3Kδ.
The AlphaScreen® reaction solutions are made using beads from the anti-GST AlphaScreen® kit (PerkinElmer, Waltham, Mass.). Two solutions are made in Alphascreen reaction buffer to 4× working concentrations. In one solution, biotinylated-IP4 (Echelon Biosciences, Salt Lake City, Utah) is diluted to 40 nM and streptavadin-Donor Beads are diluted to 80 μg/mL. In the second solution, PIP3-binding protein (Echelon Biosciences, Salt Lake City, Utah) is diluted to 40 nM and anti-GST-Acceptor Beads are diluted to 80 μg/mL. 10 μL/well of enzyme reaction buffer is added to Column 24 of the assay ready plates in place of enzyme. This is done for plates in the PI3Kα, β, and δ assays.
Using a 384-well dispensing Multidrop (Titertek, Huntsville, Ala.), 10 μL/well of 2× enzyme (PI3Kα, β, δ) is added to Columns 1-23 of the appropriate assay ready plates (for PI3Kγ 10 μL is added to Columns 1-24). 10 μL/well of the appropriate substrate solution (the solution with 20 μM ATP for PI3Kα and β assays, and the solution with […] for PI3Kγ and δ assays) is then added to Columns 1-24 of the plates. Plates are then incubated at room temperature for 20 minutes.
In the dark, 10 μL/well of the Donor Bead solution is added to Columns 1-24 of the plates to quench the enzyme reaction. The plates are incubated at room temperature for 30 minutes. Still in the dark, 10 μL/well of the Acceptor Bead solution is also added to Columns 1-24 of the plates. The plates are then incubated in the dark for 1.5 hours. The plates are read on an Envision Multilabel Plate Reader (PerkinElmer, Waltham, Mass.) with a 680 nm excitation filter and a 520-620 nm emission filter.
Activity data for the compounds tested in the assay is provided in Table 1 under the column heading PI3Kα AlphaScreen®.

PI3Kα, sequence (P42336 whole entry): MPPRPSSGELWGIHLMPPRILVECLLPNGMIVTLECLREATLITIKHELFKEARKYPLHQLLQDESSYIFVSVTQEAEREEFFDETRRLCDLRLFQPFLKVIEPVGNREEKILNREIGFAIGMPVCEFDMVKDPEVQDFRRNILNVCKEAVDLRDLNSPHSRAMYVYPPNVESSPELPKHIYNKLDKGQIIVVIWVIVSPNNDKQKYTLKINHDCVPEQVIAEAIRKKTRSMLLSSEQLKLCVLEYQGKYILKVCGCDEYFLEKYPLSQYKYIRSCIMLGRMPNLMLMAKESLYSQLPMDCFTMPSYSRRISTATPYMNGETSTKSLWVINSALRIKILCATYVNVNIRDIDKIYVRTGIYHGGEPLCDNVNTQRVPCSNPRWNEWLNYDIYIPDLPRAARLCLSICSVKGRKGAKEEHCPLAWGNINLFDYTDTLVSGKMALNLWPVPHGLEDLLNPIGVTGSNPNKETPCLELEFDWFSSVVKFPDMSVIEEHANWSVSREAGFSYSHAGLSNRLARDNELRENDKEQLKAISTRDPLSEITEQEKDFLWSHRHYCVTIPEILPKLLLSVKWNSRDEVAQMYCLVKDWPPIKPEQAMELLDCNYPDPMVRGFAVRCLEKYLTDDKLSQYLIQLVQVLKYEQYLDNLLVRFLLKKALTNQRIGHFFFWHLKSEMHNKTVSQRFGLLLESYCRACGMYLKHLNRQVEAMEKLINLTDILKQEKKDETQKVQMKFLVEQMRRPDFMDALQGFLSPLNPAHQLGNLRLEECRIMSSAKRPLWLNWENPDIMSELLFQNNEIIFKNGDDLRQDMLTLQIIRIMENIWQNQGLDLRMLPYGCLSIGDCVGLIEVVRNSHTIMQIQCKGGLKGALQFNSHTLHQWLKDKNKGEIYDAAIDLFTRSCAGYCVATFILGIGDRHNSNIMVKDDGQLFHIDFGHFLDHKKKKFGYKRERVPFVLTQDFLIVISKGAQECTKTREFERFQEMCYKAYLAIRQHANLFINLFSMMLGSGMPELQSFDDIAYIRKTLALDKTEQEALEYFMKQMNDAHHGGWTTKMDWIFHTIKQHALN
PI3Kα, sequence (P27986 whole entry partner): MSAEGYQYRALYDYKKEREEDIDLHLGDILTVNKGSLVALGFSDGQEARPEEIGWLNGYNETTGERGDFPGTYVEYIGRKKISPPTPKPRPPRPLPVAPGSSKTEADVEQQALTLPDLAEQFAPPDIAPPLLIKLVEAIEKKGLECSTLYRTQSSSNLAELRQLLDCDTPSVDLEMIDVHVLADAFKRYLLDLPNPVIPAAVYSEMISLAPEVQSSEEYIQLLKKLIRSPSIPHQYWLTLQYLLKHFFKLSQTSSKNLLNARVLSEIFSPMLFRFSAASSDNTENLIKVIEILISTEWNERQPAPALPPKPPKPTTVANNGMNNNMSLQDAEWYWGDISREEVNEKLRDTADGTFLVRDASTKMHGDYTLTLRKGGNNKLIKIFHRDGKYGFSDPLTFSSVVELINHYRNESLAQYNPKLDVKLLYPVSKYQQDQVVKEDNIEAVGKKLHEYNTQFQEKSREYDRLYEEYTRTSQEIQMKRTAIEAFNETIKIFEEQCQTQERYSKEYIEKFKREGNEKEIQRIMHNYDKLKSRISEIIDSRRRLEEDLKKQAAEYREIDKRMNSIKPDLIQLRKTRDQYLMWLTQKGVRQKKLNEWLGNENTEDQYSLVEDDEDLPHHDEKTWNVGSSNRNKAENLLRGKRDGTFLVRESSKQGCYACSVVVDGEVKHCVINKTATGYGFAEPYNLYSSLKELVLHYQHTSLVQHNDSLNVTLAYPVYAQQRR

For `O=S(=O)(Nc1cc(-c2cnc3ccccn23)cnc1Cl)c1ccc(F)cc1` [Example 3, N-(2-Chloro-5-imidazo[1,2-a]pyridin-3-yl-3-pyridinyl)-4-fluorobenzenesulfonamide], on mTOR, the IC50 (usually the concentration that gives 50% inhibition) stood at 155 nM. The Ki (in general, a measure of affinity in units of concentration, obtained from inhibition or displacement) at PI3Kα turned out to be 28 nM.

On to `Cc1ccn2c(-c3cnc(Cl)c(NS(=O)(=O)c4ccc(F)cc4)c3)cnc2c1` [Example 4, N-(2-Chloro-5-(7-methylimidazo[1,2-a]pyridin-3-yl)-3-pyridinyl)-4-fluorobenzenesulfonamide], for which the Ki on PI3Kα is 19 nM.

For `Cc1nc2ccc(Br)cn2c1-c1cnc(Cl)c(NS(=O)(=O)c2ccc(F)cc2)c1` [Example 5, N-(5-(6-Bromo-2-methylimidazo[1,2-a]pyridin-3-yl)-2-chloro-3-pyridinyl)-4-fluorobenzenesulfonamide], the IC50 against mTOR turned out to be 848 nM. This compound also showed a Ki at PI3Kα of 20 nM.

Regarding `O=S(=O)(Nc1cc(-c2cnc3ccc(Br)cn23)cnc1Cl)c1ccc(F)cc1` [Example 6, N-(5-(6-Bromoimidazo[1,2-a]pyridin-3-yl)-2-chloro-3-pyridinyl)-4-fluorobenzenesulfonamide], the IC50 against mTOR was 39 nM. Further, on PI3Kα, the affinity, expressed as Ki, was 6 nM.

`O=S(=O)(Nc1cc(-c2cnc3ccc(-c4ccncc4)cn23)cnc1Cl)c1ccc(F)cc1` [Example 7, N-(2-Chloro-5-(6-(4-pyridinyl)imidazo[1,2-a]pyridin-3-yl)-3-pyridinyl)-4-fluorobenzenesulfonamide] yielded an IC50 on mTOR of 36 nM. On PI3Kα, this compound returned a Ki of 2 nM.

In the case of `O=S(=O)(Nc1cc(-c2cnc3ccc(-c4cccnc4)cn23)cnc1Cl)c1ccc(F)cc1` [Example 8, N-(2-Chloro-5-(6-(3-pyridinyl)imidazo[1,2-a]pyridin-3-yl)-3-pyridinyl)-4-fluorobenzenesulfonamide], at mTOR, half-maximal inhibition (IC50) was put at 32 nM. At PI3Kα, this compound yielded a Ki of 1 nM.

In turn, `O=S(=O)(Nc1cc(-c2cnc3ccc(N4CCOCC4)cn23)cnc1Cl)c1ccc(F)cc1` [Example 9, N-(2-Chloro-5-(6-(4-morpholinyl)imidazo[1,2-a]pyridin-3-yl)-3-pyridinyl)-4-fluorobenzenesulfonamide] gave an IC50 on mTOR of 364 nM. On PI3Kα, this compound had a Ki of 4 nM.

For the compound `COc1cc(-c2cnc3ccccn23)cnc1OC` [Example 10, 3-(5,6-Dimethoxy-3-pyridinyl)imidazo[1,2-a]pyridine], the IC50 against mTOR was > 50000 nM. Besides, at PI3Kα, the Ki is > 1500 nM.

As to `COc1cc(-c2cnc3ccc(Br)cn23)cnc1OC` [Example 11, 6-Bromo-3-(5,6-dimethoxy-3-pyridinyl)imidazo[1,2-a]pyridine], half-maximal inhibition on mTOR (IC50) required 2170 nM. For the same compound, the Ki on PI3Kα amounted to 779 nM.

Regarding `COc1cc(-c2cnc3ccc(-c4ccncc4)cn23)cnc1OC` [Example 12, 3-(5,6-Dimethoxy-3-pyridinyl)-6-(4-pyridinyl)imidazo[1,2-a]pyridine], the IC50 against mTOR amounted to 3750 nM. The compound further yielded a Ki on PI3Kα of 626 nM.

In turn, `COc1cc(-c2cnc3ccc(N4CCOC4=O)cn23)cnc1OC` [Example 13, 3-(3-(5,6-Dimethoxy-3-pyridinyl)imidazo[1,2-a]pyridin-6-yl)-1,3-oxazolidin-2-one] registered an IC50 against mTOR of 9660 nM. Further, on PI3Kα, the inhibition constant Ki was > 1500 nM.

The compound `COc1cc(-c2cnc3ccc(N4CCOCC4)cn23)cnc1OC` [Example 16, 3-(5,6-Dimethoxy-3-pyridinyl)-6-(4-morpholinyl)imidazo[1,2-a]pyridine] came in with an IC50 on mTOR of 4520 nM. The compound further displayed a Ki on PI3Kα of 1080 nM.

As to `CN(C)S(=O)(=O)Nc1cc(-c2cnc3ccc(-c4ccncc4)cn23)cnc1Cl` [Example 18, N-(2-Chloro-5-(6-(pyridin-4-yl)imidazo[1,2-a]pyridin-3-yl)pyridin-3-yl)dimethylaminosulfonamide], the IC50 against mTOR was found to be 15 nM. At PI3Kα, affinity was put at a Ki of 1 nM.

`CN(C)S(=O)(=O)Nc1cc(-c2cnc3ccc(-c4ccnc(C(F)(F)F)c4)cn23)cnc1Cl` [Example 19, N-(2-Chloro-5-(6-(2-(trifluoromethyl)pyridin-4-yl)imidazo[1,2-a]pyridin-3-yl)pyridin-3-yl)dimethylaminosulfonamid] came in with an IC50 against mTOR of 15 nM. On PI3Kα, this compound gave a Ki of 1 nM.

At mTOR, `CS(=O)(=O)Nc1cc(-c2cnc3cc(-c4cccnc4)ccn23)cnc1Cl` [Example 20, N-(2-Chloro-5-(7-(pyridin-3-yl)imidazo[1,2-a]pyridin-3-yl)pyridin-3-yl)methanesulfonamide] had a half-maximal inhibitory concentration (IC50) of 32 nM. The Ki at PI3Kα was 5 nM.

For `CN(C)S(=O)(=O)Nc1cc(-c2cnc3cc(-c4ccncc4)ccn23)cnc1Cl` [Example 21, N′-(2-Chloro-5-(7-(4-pyridinyl)imidazo[1,2-a]pyridin-3-yl)-3-pyridinyl)-N,N-dimethylsulfamide], at mTOR, the IC50 was 258 nM. Besides, the affinity on PI3Kα, expressed as Ki, was 15 nM.

On to `CN(C)S(=O)(=O)Nc1cc(-c2cnc3cc(-c4cccnc4)ccn23)cnc1Cl` [Example 22, N′-(2-Chloro-5-(7-(3-pyridinyl)imidazo[1,2-a]pyridin-3-yl)-3-pyridinyl)-N,N-dimethylsulfamide], for which it took 157 nM to reach half-maximal inhibition against mTOR (IC50). Besides, affinity at PI3Kα was put at a Ki of 21 nM.

As to `Cc1cc2ncc(-c3cnc(Cl)c(NS(=O)(=O)N(C)C)c3)n2cc1-c1ccncc1` [Example 23, N′-(2-Chloro-5-(7-methyl-6-(4-pyridinyl)imidazo[1,2-a]pyridin-3-yl)-3-pyridinyl)-N,N-dimethylsulfamide], on mTOR, 18 nM corresponded to half-maximal inhibition (IC50). Besides, the Ki at PI3Kα amounted to 4 nM.

Turning to `O=S(=O)(Nc1cc(-c2cnc3ccc(Cl)nn23)cnc1Cl)c1ccc(F)cc1` [Example 25, N-(2-Chloro-5-(6-chloroimidazo[1,2-b]pyridazin-3-yl)pyridin-3-yl)-4-fluorobenzenesulfonamide], at mTOR, half-maximal inhibition (IC50) was put at 102 nM. For the same compound, the Ki at PI3Kα came out at 22 nM.

Source of the values: patent publication US8729074B2, “Inhibitors of PI3 kinase” (Amgen Inc., priority 2009, dated 2014).
